From PubChem BioAssay AID248 (DTP/NCI, 2004)
“And” between values parts separate entries of the source, which are not always exact repeats. Equal entries are not always repeated. Inconclusive results and toxic doses are left out.

Test system: L1210 leukemia ip in BDF1 mice, survival T/C
Test: NCI In Vivo Anticancer Drug Screen. Data for tumor model L1210 Leukemia (intraperitoneal) in B6D2F1 (BDF1) mice
Conditions: endpoint: mean survival time, higher = longer survival
In short: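 Antitumor effect is assessed in tumor-bearing animals. Survival in the compound arm is compared with a vehicle-dosed control arm and expressed as their quotient.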

[1] = dose: 100.0 mg/kg/injection, schedule: Q01DX009 (ip), vehicle: saline
[2] = dose: 200.0 mg/kg/injection, schedule: Q01DX009 (ip), vehicle: saline
[3] = dose: 100.0 mg/kg/injection, schedule: Q01DX001 (ip), vehicle: saline
[4] = dose: 200.0 mg/kg/injection, schedule: Q01DX001 (ip), vehicle: saline
[5] = dose: 100.0 mg/kg/injection, schedule: Q01DX009 (ip), vehicle: saline with Tween-80
[6] = dose: 30.0 mg/kg/injection, schedule: Q01DX Z (ip), vehicle: carboxymethylcellulose (CMC)

In the case of `Nc1nc(Cl)c(N=Nc2ccc(Cl)cc2)c(NC2CC(O)C(CO)C2)n1` (centres undefined), the T/C (dose: 100.0 mg/kg/injection, schedule: Q04DX002 (ip), vehicle: Klucel (hydroxypropylcellulose) (HPC)) is reported as 104 % of control, the T/C (dose: 200.0 mg/kg/injection, schedule: Q04DX002 (ip), vehicle: Klucel (hydroxypropylcellulose) (HPC)) is reported as 100 % of control and the T/C (dose: 400.0 mg/kg/injection, schedule: Q04DX002 (ip), vehicle: Klucel (hydroxypropylcellulose) (HPC)) is reported as 96 % of control.
`O=C1CSCC(=O)N1` was tested, and the T/C [1] was 102 % of control, the T/C [2] was 97 % of control and the T/C (dose: 400.0 mg/kg/injection, schedule: Q01DX009 (ip), vehicle: saline) was 103 % of control.
`CCOC(=O)C(C(C)=O)C(c1ccc(O)cc1)C(C(C)=O)C(=O)OCC` (centres undefined) was tested, and the T/C [3] was 93 % of control, the T/C [4] was 86 % of control and the T/C (dose: 400.0 mg/kg/injection, schedule: Q01DX001 (ip), vehicle: saline) was 87 % of control.
In the case of `O=C(Nc1ccc(F)cc1)c1ccccc1Cl`, the T/C (dose: 100.0 mg/kg/injection, schedule: Q01DX009 (ip), vehicle: acetone) is reported as 98 % of control, the T/C (dose: 200.0 mg/kg/injection, schedule: Q01DX009 (ip), vehicle: acetone) is reported as 102 % of control and the T/C (dose: 400.0 mg/kg/injection, schedule: Q01DX009 (ip), vehicle: acetone) is reported as 102 % of control.
For `Nc1nc(N)c2cc(CNc3ccc(C(=O)NC(CCCC(=O)O)C(=O)O)cc3)cnc2n1` (centres undefined), the T/C (dose: 100.0 mg/kg/injection, schedule: Q04DX003 (ip), vehicle: saline with Tween-80) was 158 % of control and 175 % of control, the T/C (dose: 200.0 mg/kg/injection, schedule: Q04DX003 (ip), vehicle: saline with Tween-80) was 154 % of control and the T/C (dose: 400.0 mg/kg/injection, schedule: Q04DX003 (ip), vehicle: saline with Tween-80) was 87 % of control.
With `NC(=O)NC1CC(c2ccccc2)C(O)(c2ccccc2)C1` (centres undefined) the T/C (dose: 50.0 mg/kg/injection, schedule: Q01DX001 (ip), vehicle: saline) was 86 % of control, the T/C [3] was 92 % of control and the T/C [4] was 90 % of control.
With `CCOCCc1ccncc1` the T/C (dose: 50.0 mg/kg/injection, schedule: Q01DX009 (ip), vehicle: saline) was 101 % of control, the T/C [1] was 94 % of control and the T/C [2] was 90 % of control.
`CCCCCCCOC(C[N+](=O)[O-])C(Cl)(Cl)Cl` (centres undefined) was tested, and the T/C (dose: 25.0 mg/kg/injection, schedule: Q01DX009 (ip), vehicle: acetone) was 95 % of control, the T/C (dose: 50.0 mg/kg/injection, schedule: Q01DX009 (ip), vehicle: acetone) was 93 % of control and the T/C (dose: 100.0 mg/kg/injection, schedule: Q04DX003 (ip), vehicle: acetone) was 99 % of control.
With `CCCCCCCCCCCC(=O)O` the T/C [5] was 92 % of control, the T/C (dose: 200.0 mg/kg/injection, schedule: Q01DX009 (ip), vehicle: saline with Tween-80) was 106 % of control and the T/C (dose: 400.0 mg/kg/injection, schedule: Q01DX009 (ip), vehicle: saline with Tween-80) was 96 % of control.
In the case of `O=C(Nc1ccc(C2=NCCN2)c(Cl)c1)c1ccc(C(=O)Nc2ccc(C3=NCCN3)c(Cl)c2)cc1`, the T/C (dose: 1.87 mg/kg/injection, schedule: Q01DX Z (ip), vehicle: carboxymethylcellulose (CMC)) is reported as 124 % of control, the T/C (dose: 3.75 mg/kg/injection, schedule: Q01DX Z (ip), vehicle: carboxymethylcellulose (CMC)) is reported as 124 % of control and the T/C (dose: 7.5 mg/kg/injection, schedule: Q01DX Z (ip), vehicle: carboxymethylcellulose (CMC)) is reported as 117 % of control. For the same compound, the T/C [6] was 120 % of control and the T/C (dose: 120.0 mg/kg/injection, schedule: Q01DX Z (ip), vehicle: carboxymethylcellulose (CMC)) was 86 % of control.
For `NC(N)=N/N=C/C(Cl)Cl`, the T/C (dose: 15.0 mg/kg/injection, schedule: Q01DX Z (ip), vehicle: carboxymethylcellulose (CMC)) was 103 % of control, the T/C (dose: 25.0 mg/kg/injection, schedule: Q01DX009 (ip), vehicle: saline with Tween-80) was 100 % of control and the T/C [6] was 97 % of control. The T/C (dose: 30.0 mg/kg/injection, schedule: Q01DX Z (oral), vehicle: carboxymethylcellulose (CMC)) was 92 % of control, the T/C (dose: 37.0 mg/kg/injection, schedule: Q01DX Z (oral), vehicle: carboxymethylcellulose (CMC)) was 113 % of control and the T/C (dose: 50.0 mg/kg/injection, schedule: Q01DX009 (ip), vehicle: saline with Tween-80) was 103 % of control. For the same compound, the T/C (dose: 50.0 mg/kg/injection, schedule: Q04DX003 (ip), vehicle: saline) was 98 % of control, the T/C (dose: 60.0 mg/kg/injection, schedule: Q01DX Z (ip), vehicle: carboxymethylcellulose (CMC)) was 111 % of control and the T/C (dose: 60.0 mg/kg/injection, schedule: Q01DX Z (oral), vehicle: carboxymethylcellulose (CMC)) was 121 % of control. For the same compound, the T/C (dose: 75.0 mg/kg/injection, schedule: Q01DX001 (oral), vehicle: carboxymethylcellulose (CMC)) was 113 % of control, the T/C (dose: 75.0 mg/kg/injection, schedule: Q01DX Z (oral), vehicle: carboxymethylcellulose (CMC)) was 107 % of control and the T/C [5] was 121 % of control. The T/C (dose: 100.0 mg/kg/injection, schedule: Q04DX003 (ip), vehicle: saline) was 102 % of control, the T/C (dose: 150.0 mg/kg/injection, schedule: Q01DX001 (oral), vehicle: carboxymethylcellulose (CMC)) was 104 % of control and the T/C (dose: 300.0 mg/kg/injection, schedule: Q01DX001 (oral), vehicle: carboxymethylcellulose (CMC)) was 104 % of control. The T/C (dose: 300.0 mg/kg/injection, schedule: Q01DX Z (oral), vehicle: carboxymethylcellulose (CMC)) was 113 % of control and the T/C (dose: 600.0 mg/kg/injection, schedule: Q01DX001 (oral), vehicle: carboxymethylcellulose (CMC)) was 117 % of control.
